The values that follow come from paper PMC12104396, “Comparative in vitro assessment of CYP2C19 inhibition by ilaprazole and conventional proton pump inhibitors using a high throughput fluorometric assay” (Scientific Reports, 2025).

Values joined by “and” are separate entries in the source; they are usually repeats but may differ in a detail not shown here. Equal entries are not always repeated.

Data set [1] is described as follows: Unbound peak plasma concentration (Cmax,u) from literature Cmax. The data set is classed as in vivo. The conditions noted are these: unbound peak plasma concentration = literature Cmax x fu 0.01; highest recommended doses. The source says:
The Cmax values for Pantoprazole, Rabeprazole, Lansoprazole, and Omeprazole were obtained from reliable sources, primarily the highest recommended doses listed in the FDA drug labels[15]–[19]. However, for Ilaprazole, as no literature data was available, its Cmax was obtained from available pharmacokinetic studies [drawing 4]
Cmax,u = unbound peak plasma concentration, Cmax = Maximum plasma concentration (from literature), fu = fraction unbound in plasma (0.01 as per the guidance for high protein-bound drugs).

The next data set deals with T1, CYP2C19 (Homo sapiens, UniProt P33261).
T1 construct: purchased Thermo Scientific P2864
T1 sequence (P33261 whole entry): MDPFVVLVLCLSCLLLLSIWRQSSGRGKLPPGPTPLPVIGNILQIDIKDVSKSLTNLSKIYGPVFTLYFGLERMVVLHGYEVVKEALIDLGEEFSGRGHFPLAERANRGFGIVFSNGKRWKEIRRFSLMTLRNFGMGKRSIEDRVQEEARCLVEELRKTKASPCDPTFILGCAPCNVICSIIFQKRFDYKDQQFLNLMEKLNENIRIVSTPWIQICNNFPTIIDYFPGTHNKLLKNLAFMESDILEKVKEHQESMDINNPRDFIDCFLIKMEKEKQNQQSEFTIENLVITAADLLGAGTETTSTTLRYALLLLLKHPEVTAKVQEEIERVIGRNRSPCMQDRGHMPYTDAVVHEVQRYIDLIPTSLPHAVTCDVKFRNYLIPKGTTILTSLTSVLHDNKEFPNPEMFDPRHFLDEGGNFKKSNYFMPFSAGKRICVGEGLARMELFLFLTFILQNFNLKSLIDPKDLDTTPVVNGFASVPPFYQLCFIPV
The experiment in a line: High-throughput fluorometric CYP2C19 inhibition assay (Vivid CYP2C19 Blue Screening Kit, EOMCC substrate, endpoint mode). The conditions noted are these: for Ki: approximated as IC50,u/2 (Cheng-Prusoff, S much lower than Km), read-out: Ki,u (unbound inhibition constant); for IC50: recombinant human CYP2C19 BACULOSOMES, eight concentrations, duplicate, nonlinear regression. The data set is classed as biochemical. As to the method: Vivid™ CYP2C19 Blue Screening Kit (Thermo Scientific; Cat. No. P2864).
Vivid® CYP450 2X Reaction Buffer 100 Mm, CYP2C19 BACULOSOMES® Plus Reagent 0.5 nmol (Recombinant human cytochrome P450), 0.5 mL Vivid® Regeneration System (Glucose-6-phosphate and 30U/mL Glucose-6-phosphate dehydrogenase in 100 mM Potassium phosphate), 0.5 mL Vivid® NADP + , Vivid® EOMCC Substrate 0.1 mg, Vivid® Blue Fluorescent Standard 0.1 µmol.
Test compounds: Dissolved in DMSO; diluted to 2.5X in 1X buffer.
Positive control inhibitor (Ticlopidine): Stock in DMSO; 2.5X dilution in 1X buffer.
Master Pre-Mix: P450 BACULOSOMES® (50 µL) + Vivid® Regeneration System (100 µL) in 1X buffer.
Substrate/NADP + Mixture: Reconstituted substrate (0.1 mg in 205 µL acetonitrile); added 50 µL substrate + 30 µL NADP + (100X).
A high-throughput fluorometric assay was conducted using a black 96-well microplate. Fluorescence measurements were recorded on a BioTek Synergy H1 multimode microplate reader (Agilent, US) with the appropriate excitation/emission wavelength. The assay followed the protocol provided by Life Technologies, USA. Test compounds were evaluated based on their ability to inhibit fluorescent signal production in reactions involving recombinant CYP isozymes and specific substrates. For IC50 determination, two-fold serial dilutions of the test samples were prepared, and the plates were incubated at 37 °C for 20 min. The enzymatic reaction was initiated by adding a mixture of NADP + and the appropriate substrate, followed by a 10-min incubation at 37 °C. The reaction was then stopped by adding 0.5 M Tris buffer (end-point assay). Fluorescence data was collected at eight different concentrations for both inhibitors and test compounds, with all measurements performed in duplicate.
Fluorescence data were collected after the incubation period, to calculate the percentage inhibition using the following formula: [drawing 1]
X = Fluorescence intensity of test compound (PPIs), A = Fluorescence intensity of solvent control (Fluorescence standard), B = Fluorescence intensity of the positive inhibitor (Ticlopidine).
IC50 values for CYP2C19 (the concentration required to inhibit 50% of CYP2C19 activity) inhibition were calculated using nonlinear regression analysis in GraphPad Prism 9 software.
IC₅₀,u (unbound IC₅₀) was calculated using the formula: [drawing 2] fu, inc = Fraction unbound in the incubation system (0.02, as per regulatory assumptions for highly protein-bound drugs).
The unbound inhibition constant (Ki,u) was determined using the Cheng-Prusoff equation: [drawing 3]
S = Substrate concentration used in the assay, IC₅₀,u = unbound half-maximal inhibitory concentration, Km = Michaelis constant for the substrate.
Fluorometric assay is the most commonly used method to identify the CYP inhibition of compounds in early drug discovery due to its sensitivity, speed, low cost, and ease of use. This method helps to ensure the drug interaction potential of the test compound on the important CYP isoforms such as CYP2C19. Inhibitor potency was quantified by determining IC50 values, which in turn was carried out using fixed substrate and inhibitor concentrations. Ilaprazole, Conventional PPIs, and Positive Control (Ticlopidine) were assayed between concentrations ranging from 0.8 to 6.4 μg/mL (Eight Different Concentration). All samples were assayed in duplicate as per the experimental condition (Table 1), the endpoint mode was selected to analyze the percentage inhibition, and IC50 values were calculated.

In the case of `COc1ccnc(C[S+]([O-])c2nc3cc(-n4cccc4)ccc3[nH]2)c1C` (stereo not drawn) [Ilaprazole], in data set [1], the “Cmax,u” value is 0.0045 µg/mL and 0.0123 µM. At CYP2C19, the Ki was determined as 166 µM and the IC50 is 6.62 ± 1.34 µM.

As to `Cc1c(OCC(F)(F)F)ccnc1C[S+]([O-])c1nc2ccccc2[nH]1` (stereo not drawn) [Lansoprazole], the “Cmax,u” value in data set [1] was 0.0115 µg/mL and 0.0311 µM. Besides, on CYP2C19, the Ki came to 41.3 µM and the 50% inhibitory concentration (IC50) stood at 1.65 ± 1.37 µM.

Regarding `COc1ccc2[nH]c([S+]([O-])Cc3ncc(C)c(OC)c3C)nc2c1` (stereo not drawn) [Omeprazole], the “Cmax,u” value in data set [1] is 0.0112 µg/mL and 0.0324 µM. In addition, at CYP2C19, the Ki stood at 35.2 µM and the IC50 was 1.41 ± 0.96 µM.

As to `COc1ccnc(C[S+]([O-])c2nc3ccc(OC(F)F)cc3[nH]2)c1OC` (stereo not drawn) [Pantoprazole], in data set [1], the “Cmax,u” value is 0.025 µg/mL and 0.0652 µM. On CYP2C19, the Ki was 88 µM and the IC50 came to 3.52 ± 1.47 µM.

In the case of `COCCCOc1ccnc(C[S+]([O-])c2nc3ccccc3[nH]2)c1C` (stereo not drawn) [Rabeprazole], in data set [1], the “Cmax,u” value was 0.0062 µg/mL and 0.0173 µM. Further, on CYP2C19, the Ki is 161 µM and the IC50 came out at 6.43 ± 1.09 µM.

For orientation: Ki means a measure of affinity in units of concentration, obtained from inhibition or displacement. Broadly, the IC50 is the concentration that inhibits the measured activity by half.
